The text below walks through data of ChEMBL document CHEMBL5726154, “Substituted heterocyclic derivative, preparation method and use thereof” (2019).

As usually defined, the IC50 is the midpoint of a concentration-inhibition curve.

The test has as its target T1, N-acylethanolamine-hydrolyzing acid amidase (Homo sapiens, UniProt Q02083).
T1 sequence (Q02083 whole entry): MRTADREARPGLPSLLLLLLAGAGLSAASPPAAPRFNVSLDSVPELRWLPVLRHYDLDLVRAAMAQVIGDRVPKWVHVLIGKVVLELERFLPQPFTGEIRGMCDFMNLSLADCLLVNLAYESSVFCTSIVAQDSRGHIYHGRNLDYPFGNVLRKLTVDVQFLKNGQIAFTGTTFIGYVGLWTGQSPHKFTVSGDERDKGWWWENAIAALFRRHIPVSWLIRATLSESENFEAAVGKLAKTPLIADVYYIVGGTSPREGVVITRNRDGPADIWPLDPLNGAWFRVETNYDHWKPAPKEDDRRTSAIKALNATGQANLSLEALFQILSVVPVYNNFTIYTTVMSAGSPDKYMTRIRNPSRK
Put plainly: Determining Endocannabinoid Hydrolase Activity: In the Experimental example, endocannabinoid hydrolases used were Fatty Acid Amide Hydrolase (FAAH) and N-acylethanolamide hydrolyzing acid amidase (NAAA), which were prepared by the method described in the document (PMCID: PMC3423427, PMC3723234, PMC2692831, PMC3382457). The preparation method was as followed: a plasmid (pCDNA3.1/NAAA or pCDNA3.1/FAAH) carrying a whole NAAA/FAAH gene was constructed, wherein the plasmid carried Cytomegalovirus (CMV) promoter and Neomycin selectable gene; the plasmid was transformed into HEK-293 cell via lipid medium, stable cell lines expressing NAAA/FAAH at a high level were obtained by G418 screening and Western-blot method. HEK-293 recombinant cells were cultured and collected, washed with PBS for 2-3 times, and ultrasonically treated in 20 mM Tris-HCl containing 0.32 M sucrose, then repeatedly frozen and thawed twice, and then centrifuged at 4° C., 800 g for 15 min. The supernatant (i.e., the desired protein) was collected, the protein concentration was determined by BCA method, and the protein was diluted to a concentration of 1 mg/mL, and sub-packaged and stored in a refrigerator at −80° C. for further use.In the Experimental example, PBS solution used was prepared as followed: 8 g NaCl, 0.2 g KCl, 1.44 g Na2HPO4, and 0.24 g KH2PO4 were dissolved in 1 L ultrapure water, and the resultant solution was subjected to moist heat sterilization and stored at 4° C.30 μL (1 mg/mL) endocannabinoid hydrolase was added to a sample vial, and 2 μL DMSO (Blank control group) or a different concentration of a test compound (Compounds 1-46 prepared in the Examples according to the invention) was further added. The reaction was carried out at 37° C. for 10 min. 170 μL buffer (the buffer consisted of 50 mM disodium Hydrogen Phosphate, 0.1% Triton X-100, 3 mM DTT, 150 μL) containing enzymatic hydrolysis substrate (the substrate was a heptadecenoyl ethanolamine containing a double bond and 17 carbon atoms, abbreviated as 17:1 FAE) was further added, wherein the concentration of 17:1 FAE was 5 μM. The reaction was carried out at 37° C. for 30 min, and 200 μL methanol solution containing internal standard (the internal standard was margaric acid, at a concentration of 1 nmol) was then added to stop the reaction. LC-MS was used to determine the yield of the hydrolysate 17:1 FA (i.e., a heptadecenoic acid containing a double bond) of 17:1 FAE, then a graph was plotted with Graphpad Prism 5. Thereby, the IC50 of the test compound on endocannabinoid hydrolase was determined.By the method above, the inhibitory effects of the Compounds 1-46 prepared in the invention on NAAA and FAAH were determined.
Turning to `O=C(CCCCCCc1ccc(Cl)cc1Cl)N1CCOC1=O`, the IC50 is 2200 nM.

Take `O=C(CCCCCc1ccsc1)N1CCOC1=O`: the IC50 is 340 nM.

For the molecule `O=C(CCCCc1cccc(Cl)c1)N1CCOC1=O`, the concentration for half-maximal inhibition (IC50) was 370 nM.

As for `O=C(CCCCCC1CCCNC1)N1CCOC1=O` (stereo not given), the half-maximal inhibitory concentration (IC50) was found to be 130 nM.

For `CCCCCCCCCCCCCCCC(=O)N1CCNC1=O`, the IC50 came out at 5400 nM.

On to `CCCCCCCCCCCCCCCC(=O)N1CCOC1=O`, for which the 50% inhibitory concentration (IC50) amounted to 46800 nM.

On to `O=C(CCCCc1ccccc1)N1CCOC1=O`, for which the half-inhibitory concentration (IC50) stood at 11200 nM.

`CC(=O)C[C@@H]1COC(=O)N1C(=O)CCCCCc1ccc(C)cc1`: the IC50 stood at 450 nM.

Consider `C[C@@H]1COC(=O)N1C(=O)CCCCCc1ccccc1`, for which the half-maximal inhibitory concentration (IC50) stood at 910 nM.

Turning to `O=C(CCCCCc1ccc(Cl)cc1)N1CCOC1=O`, the half-inhibitory concentration (IC50) was 5100 nM.

As to `O=C(CCCCc1ccc(F)cc1)N1CCOC1=O`, the IC50 came out at 850 nM.

With `O=C1OCCN1C(=O)c1ccc(OCc2ccccc2)cc1`, the IC50 is 3400 nM.

`O=C(CCCCCc1ccccc1)N1CCOC1=O`: the IC50 amounted to 210 nM.

Regarding `O=C1OCCN1C(=O)c1cccc(OCc2ccccc2)c1`, the concentration for half-maximal inhibition (IC50) amounted to 78600 nM.

For `O=C(CCCCCc1ccc2ccccc2c1)N1CCOC1=O`, the IC50 turned out to be 920 nM.

`O=C1OCCN1C(=O)c1ccc(Oc2cccc(Cl)c2)cc1`: the IC50 stood at 370 nM.

Consider `O=C(CCCCCc1c[nH]c2ccccc12)N1CCOC1=O`, for which the concentration for half-maximal inhibition (IC50) stood at 23500 nM.

In the case of `O=C(CCCCCc1cccc(F)c1)N1CCOC1=O`, the IC50 worked out at 250 nM.

Turning to `CC(=O)C[C@@H]1COC(=O)N1C(=O)CCCCCc1cccc(C)c1`, the half-inhibitory concentration (IC50) is 380 nM.

For the molecule `O=C(CCCCCC1CCCCC1)N1CCOC1=O`, the IC50 worked out at 180 nM.

With `O=C(CCCCCCc1ccccc1)N1CCOC1=O`, the IC50 was found to be 9400 nM.

Regarding `O=C1OCCN1C(=O)c1cccc(-c2ccccc2)c1`, the IC50 was 9500 nM.

Regarding `O=C(CCCCCCCc1ccccc1)N1CCOC1=O`, the IC50 turned out to be 21000 nM.

As to `O=C(CCCCCc1ccoc1)N1CCOC1=O`, the 50% inhibitory concentration (IC50) was 360 nM.

For the molecule `O=C(CCCCCc1ccc2cc(F)ccc2c1)N1CCOC1=O`, the IC50 amounted to 5700 nM.
